# Values quoted from earlier work in US20120172427A1, “(Z)-2-CYANO-3-HYDROXY-BUT-2-ENOIC ACID-(4'-TRIFLUOROMETHYLPHENYL)-AMIDE TABLET FORMULATIONS WITH IMPROVED STABILITY” (SANOFI, priority 2009, published 2012).
# Assays:
# [1] = molecular target: dihydroorotate dehydrogenase (Homo sapiens, UniProt Q02127); settings: Bruneau et al., Biochem. J. 1998
# [2] = tested on: immune cells and cell lines; settings: wide variety of immune cells and cell lines; literature
# Chain of dihydroorotate dehydrogenase (Q02127 whole entry): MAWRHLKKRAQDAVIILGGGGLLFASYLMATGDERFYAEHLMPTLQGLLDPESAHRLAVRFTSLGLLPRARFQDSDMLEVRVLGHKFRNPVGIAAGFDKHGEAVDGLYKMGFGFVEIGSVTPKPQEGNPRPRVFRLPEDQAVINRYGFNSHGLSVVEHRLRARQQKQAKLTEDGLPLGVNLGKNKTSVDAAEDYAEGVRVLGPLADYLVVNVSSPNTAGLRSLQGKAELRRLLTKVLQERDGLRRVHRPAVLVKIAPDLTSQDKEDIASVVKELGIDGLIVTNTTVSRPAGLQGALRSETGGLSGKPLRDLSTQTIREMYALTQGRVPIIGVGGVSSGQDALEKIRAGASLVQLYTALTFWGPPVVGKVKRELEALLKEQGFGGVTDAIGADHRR
smiles,measurement,setting,value
"C/C(O)=C(\C#N)C(=O)Nc1ccc(C(F)(F)F)cc1 [Teriflunomide, (Z)-2-cyano-3-hydroxy-but-2-enoic acid-(4′-trifluoromethylphenyl)-amide]",inhibition of dihydroorotate dehydrogenase,[1],inhibits
same,antiproliferative effects,[2],antiproliferative effects
